Here are results for one compound from patent US11229633B2, “Arimoclomol formulation” (Orphazyme A/S, priority 2014, dated 2022).

The conditions of data set [1]: cited from earlier work.
The target in data set [2] is T1, OATP1B3 (Homo sapiens, UniProt Q9NPD5).
T1 sequence (Q9NPD5 1-702): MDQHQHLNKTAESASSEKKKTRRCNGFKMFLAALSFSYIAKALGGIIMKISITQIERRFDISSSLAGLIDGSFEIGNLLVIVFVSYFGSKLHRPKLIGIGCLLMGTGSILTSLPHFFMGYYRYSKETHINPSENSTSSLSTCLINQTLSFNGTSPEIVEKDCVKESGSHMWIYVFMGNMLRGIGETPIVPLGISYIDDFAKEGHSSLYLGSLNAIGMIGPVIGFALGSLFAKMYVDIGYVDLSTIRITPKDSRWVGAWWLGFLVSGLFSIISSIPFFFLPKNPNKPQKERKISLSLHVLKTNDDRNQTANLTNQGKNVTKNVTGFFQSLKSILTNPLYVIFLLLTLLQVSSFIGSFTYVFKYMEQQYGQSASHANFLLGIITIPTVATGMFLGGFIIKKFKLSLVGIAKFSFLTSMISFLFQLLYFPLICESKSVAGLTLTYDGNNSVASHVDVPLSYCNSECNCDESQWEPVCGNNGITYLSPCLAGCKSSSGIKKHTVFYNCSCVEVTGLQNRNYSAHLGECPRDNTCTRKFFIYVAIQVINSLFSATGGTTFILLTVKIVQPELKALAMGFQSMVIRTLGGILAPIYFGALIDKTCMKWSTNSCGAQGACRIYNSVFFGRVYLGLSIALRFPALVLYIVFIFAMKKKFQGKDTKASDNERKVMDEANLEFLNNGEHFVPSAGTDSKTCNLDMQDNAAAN
Kind of data set: Substrate statement, OATP1B3. It counts as in vitro ADME.

The target in data set [3] is T1, OATP1B3. Nature of the data set: Uptake transporter inhibition assay, OATP1B3. It counts as in vitro ADME. Details: expressed in transfected cells; host or cells: CHO (protocol UPT-CHO-OATP1B3-Fluo3; control: parental CHO-K1; 5 mM Na+ butyrate induction); key to maximum inhibition: NIO: No interaction observed. The note with it: for maximum inhibition: 0.3-300 μM. The procedure: (§1) Uptake experiments were performed using CHO, MDCKII, or HEK293 cells stably expressing the respective uptake transporters.
(§2) Cells were cultured at 37±1° C. in an atmosphere of 95:5 air:CO2 and were plated onto standard 96-well tissue culture plates at the cell number described in table 4.
(§3) Before the experiment, the medium was removed and the cells were washed twice with 100 μl of HK buffer at pH 7.4 (prepared from Sigma chemicals, Sigma-Aldrich, St Louis, Mo.). Uptake experiments were carried out at 37±1° C. in 50 μl of HK buffer (pH 7.4) containing the probe substrate and the TA or vehicle control (water).
(§4) After the experiment, cells were washed twice with ice cold, 100 μl of HK buffer and lysed with 50 μl of 0.1 M NaOH (1 mM CaCl2) in 5% SDS in the case of OATP1B3). Fluo-3 transport (OATP1B3) was determined by measuring fluorescence using 485 nm and 520 nm as the excitation and emission wavelengths, respectively. Radiolabelled probe substrate transport was determined by measuring an aliquot (35 μl) from each well for liquid scintillation counting.
(§5) Uptake of the probe substrate in control cells provided background activity values for all data points. Incubation without TA or reference inhibitor (solvent only) provided 100% activity values. A reference inhibitor served as positive control for inhibition.
(§6) The amount of translocated probe substrate was determined for each well in cpm or RFU. Relative activities were calculated from the equation:
(§7) [formula] A: amount of translocated substrate in the presence of TA in transfected cells B: amount of translocated substrate in the presence of TA in control cells C: amount of translocated substrate in the presence of solvent in transfected cells D: amount of translocated substrate in the presence of solvent in control cells Calculation of Fold Accumulation Values
(§8) In uptake transporter inhibition assays, the IC50 (μM) was calculated, where applicable. […]

In the next data set the target is T2, OATP1B1 (Homo sapiens, UniProt Q9Y6L6).
T2 sequence (Q9Y6L6 1-691): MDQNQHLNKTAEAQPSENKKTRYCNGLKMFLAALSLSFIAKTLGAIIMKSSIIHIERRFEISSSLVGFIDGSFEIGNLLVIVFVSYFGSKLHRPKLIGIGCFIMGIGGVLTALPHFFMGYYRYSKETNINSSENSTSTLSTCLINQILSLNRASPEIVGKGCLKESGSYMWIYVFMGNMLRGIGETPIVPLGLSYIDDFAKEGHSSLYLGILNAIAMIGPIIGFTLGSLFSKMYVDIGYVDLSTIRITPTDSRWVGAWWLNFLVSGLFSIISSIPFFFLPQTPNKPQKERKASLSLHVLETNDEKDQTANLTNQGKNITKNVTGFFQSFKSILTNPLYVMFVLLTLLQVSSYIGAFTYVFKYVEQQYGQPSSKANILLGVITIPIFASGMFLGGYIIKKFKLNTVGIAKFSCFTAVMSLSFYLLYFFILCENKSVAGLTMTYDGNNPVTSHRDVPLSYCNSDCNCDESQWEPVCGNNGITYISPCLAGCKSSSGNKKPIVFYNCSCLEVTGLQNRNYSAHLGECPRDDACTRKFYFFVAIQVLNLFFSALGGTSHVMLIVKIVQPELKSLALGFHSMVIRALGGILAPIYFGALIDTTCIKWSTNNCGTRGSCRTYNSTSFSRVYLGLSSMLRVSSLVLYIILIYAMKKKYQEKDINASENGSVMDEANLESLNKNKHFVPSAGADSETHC
Nature of the data set: Uptake transporter inhibition assay, OATP1B1. The class given is in vitro ADME. Set-up: expressed in transfected cells; host or cells: HEK293 (protocol UPT-HEK293-OATP1B1-E217βG; control: mock-transfected HEK293 FT); key to maximum inhibition: NIO: No interaction observed. Particulars: for maximum inhibition: 0.3-300 μM. The method, then:
as §1, §2, §3, §4, §5, §6, §7, §8

Entries after “also recorded” stand apart in the source; their conditions may differ.

For the compound `[O-][n+]1cccc(C(Cl)=NOCC(O)CN2CCCCC2)c1` (stereo not shown) [Arimoclomol, N-[2-hydroxy-3-(1-piperidinyl)-propoxy]-pyridine-1-oxide-3-carboximidoyl chloride], the maximum tolerated dose entry in data set [1] (healthy human volunteers) is on record as “no maximum tolerated dose has been reached”. For the same compound, the safety and tolerability result in data set [1] (oral single ascending or repeated doses 50 to 800 mg, 261 subjects) was “safe and well-tolerated”. Further, in data set [1] (single- and multiple-dose Phase I studies), the serum creatinine levels result was “slight and reversible increases”. Further, the “Substrate of the transporter (in words)” value at OATP1B3 [2] is on record as “not a substrate”. For the same compound, the maximum inhibition entry on OATP1B3 [3] (Table 2), at OATP1B3 [3] (Table 5), at OATP1B1 (Table 2) and at OATP1B1 (Table 5) was “NIO” each time. In addition, the “Influence on OATP1B3-mediated probe substrate accumulation (in words)” value at OATP1B3 [3] (applied concentrations) was “did not influence; also recorded: not an inhibitor”. The “Influence on OATP1B1-mediated probe substrate accumulation (in words)” value on OATP1B1 (applied concentrations) is recorded as “did not influence; also recorded: not an inhibitor”.
